± gives the expanded uncertainty stated by the source.

The nature of the series: activity coefficient (dimensionless); of the first substance listed, at infinite dilution; xn = mol fraction of the nth substance listed. Conditions: 101 kPa, Liquid, Chromatography, x1 = 0.

Take `CC1CCCCC1` [methylcyclohexane] + CCCC[N+]1(C)CCCC1.O=C1O[B-]2(OC1=O)OC(=O)C(=O)O2: the activity coefficient runs as follows: (333.15 K) 30 ± 1.6; (343.15 K) 26.5 ± 1.4; (353.15 K) 24 ± 1.2; (363.15 K) 21.6 ± 1.1; (373.15 K) 19.9 ± 1.

With `CCc1ccccc1` [ethylbenzene] + CCCC[N+]1(C)CCCC1.O=C1O[B-]2(OC1=O)OC(=O)C(=O)O2, the activity coefficient reads like this: (333.15 K) 3.97 ± 0.2; (343.15 K) 3.85 ± 0.2; (353.15 K) 3.74 ± 0.19; (363.15 K) 3.65 ± 0.19; (373.15 K) 3.56 ± 0.18.

As to `c1ccccc1` [benzene] + CCCC[N+]1(C)CCCC1.O=C1O[B-]2(OC1=O)OC(=O)C(=O)O2, the activity coefficient reads like this: (333.15 K) 1.65 ± 0.08; (343.15 K) 1.63 ± 0.08; (353.15 K) 1.61 ± 0.08; (363.15 K) 1.6 ± 0.08; (373.15 K) 1.59 ± 0.08.

As for `CCCO` [propan-1-ol] + CCCC[N+]1(C)CCCC1.O=C1O[B-]2(OC1=O)OC(=O)C(=O)O2, the activity coefficient by setting is: (333.15 K) 2.56 ± 0.13; (343.15 K) 2.3 ± 0.12; (353.15 K) 2.08 ± 0.11; (363.15 K) 1.9 ± 0.1; (373.15 K) 1.76 ± 0.09.

In the case of `CCC(C)=O` [butanone] + CCCC[N+]1(C)CCCC1.N#C[B-](C#N)(C#N)C#N, the activity coefficient amounted to 0.546 ± 0.031 (318.15 K); 0.551 ± 0.031 (323.15 K); 0.564 ± 0.032 (333.15 K); 0.575 ± 0.032 (343.15 K); 0.588 ± 0.032 (353.15 K).

As for `COC(C)=O` [methyl ethanoate] + CCCC[N+]1(C)CCCC1.N#C[B-](C#N)(C#N)C#N, the activity coefficient runs as follows: (318.15 K) 0.671 ± 0.034; (323.15 K) 0.678 ± 0.034; (333.15 K) 0.693 ± 0.035; (343.15 K) 0.708 ± 0.035; (353.15 K) 0.724 ± 0.036.

In the case of `ClC(Cl)(Cl)Cl` [tetrachloromethane] + CCCC[N+]1(C)CCCC1.N#C[B-](C#N)(C#N)C#N, the activity coefficient (318.15 K) was determined as 2.4 ± 0.12; the activity coefficient (323.15 K) was determined as 2.41 ± 0.12; the activity coefficient (333.15 K) was found to be 2.43 ± 0.12; the activity coefficient (343.15 K) turned out to be 2.45 ± 0.13; the activity coefficient (353.15 K) turned out to be 2.47 ± 0.13.

In the case of `CC1CCCCC1` [methylcyclohexane] + CCCC[N+]1(C)CCCC1.N#C[B-](C#N)(C#N)C#N, the activity coefficient turned out to be 12.2 ± 0.6 (318.15 K); 11.8 ± 0.6 (323.15 K); 11.2 ± 0.6 (333.15 K); 10.6 ± 0.5 (343.15 K); 10.1 ± 0.5 (353.15 K).

For the compound `Cc1cccc(C)c1` [1,3-dimethylbenzene] + CCCC[N+]1(C)CCCC1.O=C1O[B-]2(OC1=O)OC(=O)C(=O)O2, the activity coefficient reads like this: (333.15 K) 3.96 ± 0.2; (343.15 K) 3.84 ± 0.2; (353.15 K) 3.73 ± 0.19; (363.15 K) 3.64 ± 0.19; (373.15 K) 3.55 ± 0.18.

Turning to `CCC(C)=O` [butanone] + CCCC[N+]1(C)CCCC1.O=C1O[B-]2(OC1=O)OC(=O)C(=O)O2, the activity coefficient (333.15 K) came to 1.13 ± 0.05; the activity coefficient (343.15 K) was found to be 1.12 ± 0.05; the activity coefficient (353.15 K) amounted to 1.11 ± 0.05; the activity coefficient (363.15 K) stood at 1.11 ± 0.05; the activity coefficient (373.15 K) worked out at 1.1 ± 0.05.

`Cc1ccccc1` [toluene] + CCCC[N+]1(C)CCCC1.O=C1O[B-]2(OC1=O)OC(=O)C(=O)O2: the activity coefficient by setting is: (333.15 K) 2.57 ± 0.13; (343.15 K) 2.52 ± 0.13; (353.15 K) 2.47 ± 0.13; (363.15 K) 2.43 ± 0.12; (373.15 K) 2.4 ± 0.12.

For the compound `CCC1CCCCC1` [ethylcyclohexane] + CCCC[N+]1(C)CCCC1.N#C[B-](C#N)(C#N)C#N, the activity coefficient (318.15 K) was determined as 17.6 ± 0.9; the activity coefficient (323.15 K) was 17 ± 0.9; the activity coefficient (333.15 K) is 15.8 ± 0.8; the activity coefficient (343.15 K) worked out at 14.8 ± 0.8; the activity coefficient (353.15 K) worked out at 13.9 ± 0.7.

Take `CC#N` [acetonitrile] + CCCC[N+]1(C)CCCC1.O=C1O[B-]2(OC1=O)OC(=O)C(=O)O2: the activity coefficient reads like this: (333.15 K) 0.509 ± 0.031; (343.15 K) 0.512 ± 0.031; (353.15 K) 0.514 ± 0.031; (363.15 K) 0.516 ± 0.031; (373.15 K) 0.517 ± 0.031.

For `C1CCCCC1` [cyclohexane] + CCCC[N+]1(C)CCCC1.O=C1O[B-]2(OC1=O)OC(=O)C(=O)O2, the activity coefficient (333.15 K) stood at 20.2 ± 1; the activity coefficient (343.15 K) stood at 17.9 ± 0.9; the activity coefficient (353.15 K) amounted to 16.2 ± 0.8; the activity coefficient (363.15 K) stood at 14.7 ± 0.8; the activity coefficient (373.15 K) came to 13.6 ± 0.7.

In the case of `CC(C)=O` [acetone] + CCCC[N+]1(C)CCCC1.O=C1O[B-]2(OC1=O)OC(=O)C(=O)O2, the activity coefficient is, setting by setting: (333.15 K) 0.762 ± 0.037; (343.15 K) 0.767 ± 0.037; (353.15 K) 0.773 ± 0.037; (363.15 K) 0.778 ± 0.037; (373.15 K) 0.784 ± 0.037.

As to `CCCCCCC` [heptane] + CCCC[N+]1(C)CCCC1.N#C[B-](C#N)(C#N)C#N, the activity coefficient by setting is: (318.15 K) 23.2 ± 1.2; (323.15 K) 22.4 ± 1.2; (333.15 K) 20.9 ± 1.1; (343.15 K) 19.7 ± 1; (353.15 K) 18.5 ± 1.

As for `CC(C)OC(C)C` [diisopropyl ether] + CCCC[N+]1(C)CCCC1.N#C[B-](C#N)(C#N)C#N, the activity coefficient is, setting by setting: (318.15 K) 5.87 ± 0.3; (323.15 K) 5.88 ± 0.3; (333.15 K) 5.86 ± 0.3; (343.15 K) 5.85 ± 0.3; (353.15 K) 5.84 ± 0.3.

Take `C1CCCCC1` [cyclohexane] + CCCC[N+]1(C)CCCC1.N#C[B-](C#N)(C#N)C#N: the activity coefficient reads like this: (318.15 K) 8.51 ± 0.44; (323.15 K) 8.26 ± 0.43; (333.15 K) 7.83 ± 0.4; (343.15 K) 7.44 ± 0.38; (353.15 K) 7.11 ± 0.37.

With `CC(C)OC(C)C` [diisopropyl ether] + CCCC[N+]1(C)CCCC1.O=C1O[B-]2(OC1=O)OC(=O)C(=O)O2, the activity coefficient was determined as 18.4 ± 1 (333.15 K); 17 ± 0.9 (343.15 K); 16 ± 0.8 (353.15 K); 15.1 ± 0.8 (363.15 K); 14.4 ± 0.7 (373.15 K).

Turning to `CCC1CCCCC1` [ethylcyclohexane] + CCCC[N+]1(C)CCCC1.O=C1O[B-]2(OC1=O)OC(=O)C(=O)O2, the activity coefficient reads like this: (333.15 K) 41.8 ± 2.2; (343.15 K) 36.9 ± 1.9; (353.15 K) 33 ± 1.7; (363.15 K) 29.7 ± 1.5; (373.15 K) 27 ± 1.4.

For the compound `C=CCCCCCC` [oct-1-ene] + CCCC[N+]1(C)CCCC1.O=C1O[B-]2(OC1=O)OC(=O)C(=O)O2, the activity coefficient is, setting by setting: (333.15 K) 41.4 ± 2.1; (343.15 K) 37.5 ± 1.9; (353.15 K) 34.3 ± 1.8; (363.15 K) 31.5 ± 1.6; (373.15 K) 29.3 ± 1.5.

Regarding `CCc1ccccc1` [ethylbenzene] + CCCC[N+]1(C)CCCC1.N#C[B-](C#N)(C#N)C#N, the activity coefficient was determined as 1.65 ± 0.08 (318.15 K); 1.66 ± 0.08 (323.15 K); 1.68 ± 0.08 (333.15 K); 1.71 ± 0.09 (343.15 K); 1.73 ± 0.09 (353.15 K).

Consider `COCCOC` [1,2-dimethoxyethane] + CCCC[N+]1(C)CCCC1.O=C1O[B-]2(OC1=O)OC(=O)C(=O)O2, for which the activity coefficient was 1.16 ± 0.05 (333.15 K); 1.2 ± 0.06 (343.15 K); 1.23 ± 0.06 (353.15 K); 1.26 ± 0.06 (363.15 K); 1.29 ± 0.06 (373.15 K).

With `CC(C)O` [propan-2-ol] + CCCC[N+]1(C)CCCC1.O=C1O[B-]2(OC1=O)OC(=O)C(=O)O2, the activity coefficient was found to be 1.98 ± 0.1 (363.15 K) and 1.83 ± 0.09 (373.15 K).

As to `Cc1ccccc1` [toluene] + CCCC[N+]1(C)CCCC1.N#C[B-](C#N)(C#N)C#N, the activity coefficient (318.15 K) was 1.13 ± 0.05; the activity coefficient (323.15 K) is 1.15 ± 0.05; the activity coefficient (333.15 K) turned out to be 1.17 ± 0.05; the activity coefficient (343.15 K) was found to be 1.19 ± 0.05; the activity coefficient (353.15 K) is 1.22 ± 0.06.

In the case of `Cc1cccc(C)c1` [1,3-dimethylbenzene] + CCCC[N+]1(C)CCCC1.N#C[B-](C#N)(C#N)C#N, the activity coefficient (318.15 K) is 1.63 ± 0.08; the activity coefficient (323.15 K) worked out at 1.64 ± 0.08; the activity coefficient (333.15 K) amounted to 1.66 ± 0.08; the activity coefficient (343.15 K) turned out to be 1.69 ± 0.08; the activity coefficient (353.15 K) came out at 1.72 ± 0.09.

Regarding `c1ccsc1` [thiophene] + CCCC[N+]1(C)CCCC1.N#C[B-](C#N)(C#N)C#N, the activity coefficient (318.15 K) is 0.681 ± 0.034; the activity coefficient (323.15 K) came to 0.688 ± 0.035; the activity coefficient (333.15 K) stood at 0.703 ± 0.035; the activity coefficient (343.15 K) is 0.718 ± 0.035; the activity coefficient (353.15 K) came to 0.733 ± 0.036.

With `COC(=O)OC` [dimethyl carbonate] + CCCC[N+]1(C)CCCC1.N#C[B-](C#N)(C#N)C#N, the activity coefficient is, setting by setting: (318.15 K) 0.522 ± 0.031; (323.15 K) 0.529 ± 0.031; (333.15 K) 0.543 ± 0.031; (343.15 K) 0.556 ± 0.032; (353.15 K) 0.57 ± 0.032.

On to `C1CCOC1` [tetrahydrofuran] + CCCC[N+]1(C)CCCC1.N#C[B-](C#N)(C#N)C#N, for which the activity coefficient is, setting by setting: (318.15 K) 0.622 ± 0.033; (323.15 K) 0.632 ± 0.033; (333.15 K) 0.65 ± 0.034; (343.15 K) 0.667 ± 0.034; (353.15 K) 0.683 ± 0.034.

For `C[N+](=O)[O-]` [nitromethane] + CCCC[N+]1(C)CCCC1.O=C1O[B-]2(OC1=O)OC(=O)C(=O)O2, the activity coefficient reads like this: (333.15 K) 0.416 ± 0.029; (343.15 K) 0.423 ± 0.029; (353.15 K) 0.43 ± 0.029; (363.15 K) 0.436 ± 0.029; (373.15 K) 0.441 ± 0.029.

These data come from the NIST ThermoML archive (doi:10.1016/j.jct.2012.09.017).
